≈ marks a conversion by molar mass, not a printed value. Read-outs that look alike come from different tables or passages of the source.
Assays:
Format in all cases: cell-based, Clostridioides difficile
[1] = tested on: C. difficile ATCC 700057; test: MIC by agar dilution (CLSI) against quality control strain; details: Clostridioides difficile, read-out: MIC
Method: (§1) MICs obtained using the agar dilution method were determined visually as described for the CLSI method ([41], [42]). MICs obtained using the broth dilution method were determined visually based on the CLSI method except for using Gifu anaerobic medium (GAM) broth instead of supplemented Brucella broth ([41], [42]).

[2] = tested on: C. difficile ATCC 43255; test: MIC against the infection strain
[3] = tested on: C. difficile ATCC 700057
[4] = tested on: 54 clinically isolated C. difficile strains; test: MIC by agar dilution against 54 clinically isolated strains
Method: as §1

[5] = tested on: 10 clinical isolates of C. difficile; test: MIC (broth dilution) and MBC testing, 10 clinical isolates; details: 10 clinical isolates
Method: In this test, MIC testing was performed using the broth dilution method as recommended in the CLSI ([41]). After the MICs were determined, 10 μl of the bacterial suspension from the MIC test tube was inoculated onto agar plates and incubated at 37°C. The bacterial colonies were then counted and bacterial numbers were calculated. The MBC was considered to be the lowest concentration of the antibiotics that prevented growth and reduced the inoculum by >99.9% within 48 h, irrespective of counts of survivors at higher antibiotic concentrations.

[6] = tested on: C. difficile ATCC 700057; test: Killing kinetics (time-kill curves)
Method: The test tubes were incubated for 48 h. The CFU/ml values of the bacterial suspensions were calculated at 0, 2, 4, 6, 24, and 48 h by culturing 0.1-ml samples of serial 10-fold dilutions on GAM agar plates at 37°C under anaerobic conditions and then counting the number of growing colonies. The CFU/ml value at each time point is from one sample of datum.

With `Cc1c(-c2cnc(N)c(C#N)c2)c(F)cc2c(=O)c(C(=O)O)cn(C3CC3)c12` [OPS-2071, 7-(6-amino-5-cyanopyridin-3-yl)-1-cyclopropyl-6-fluoro-8-methyl-4-oxo-1,4-dihydroquinoline-3-carboxylic acid] the MIC ([1]; ATCC700057, agar dilution, determined for the spontaneous resistance assay) was 0.03 mg/L (≈ 0.0793 µM), the MIC ([1]; ATCC700057, quality control strain ATCC 700057, CLSI method) was 0.031 mg/L (≈ 0.0819 µM) and the MIC [2] was 0.016 mg/L (≈ 0.0423 µM). The “Frequency of spontaneous resistance” value ([3]; 4× MIC) was <9.17 × 10^–9, the “Frequency of spontaneous resistance” value ([3]; 16× MIC) was <9.17 × 10^–9 and the “Frequency of spontaneous resistance” value ([3]; 64× MIC) was <9.17 × 10^–9. For the same compound, the “MIC50 fold higher than that of fidaxomicin” value ([4]; 54 clinical isolates) was 2 fold, the “MIC50 fold lower than those of vancomycin and metronidazole” value ([4]; 54 clinical isolates) was 16 fold and the “MIC90 fold lower than that of fidaxomicin” value ([4]; 54 clinical isolates) was 16 fold. The “MIC90 fold lower than those of vancomycin and metronidazole” value ([4]; 54 clinical isolates) was 8 fold, the MIC range ([4]; 54 clinically isolated C. difficile strains) was 0.016 to 1 mg/L and the MIC50 ([4]; Clostridioides difficile) was 0.125 mg/L (≈ 0.33 µM). The MIC90 ([4]; Clostridioides difficile, 54 clinically isolated C. difficile strains) was 0.5 mg/L (≈ 1.32 µM), the MBC90/MIC90 [5] was 1 and the “MBC Range” value ([5]; >99.9% reduction within 48 h) was 0.03 to 0.5 mg/L. For the same compound, the “MIC range” value ([5]; broth dilution) was 0.03 to 0.5 mg/L, the MIC90 ([5]; Clostridioides difficile, broth dilution, read-out: MIC90) was 0.5 mg/L (≈ 1.32 µM) and the MBC ([5]; Clostridioides difficile, read-out: MBC90) was 0.5 mg/L (≈ 1.32 µM). The “regrowth of the bacteria” value ([6]; after 48 h of incubation) was “regrowth of the bacteria did not occur”, the “time to undetectable level of viable bacteria” value ([6]; concentrations higher than the MIC) was ≤ 24 h and the “reduction of viable bacteria” value ([6]; concentrations higher than the MIC, first 2 h) was 2 log.

From article PMC8097418, “In Vitro and In Vivo Antibacterial Activities of a Novel Quinolone Compound, OPS-2071, against Clostridioides difficile” (Antimicrobial Agents and Chemotherapy, 2021)
